What was measured:
[1] = target: Tyk2 (Homo sapiens (Human), UniProt P29597); experiment: Biochemical JAK kinase assay (LanthaScreen), Tyk2
Procedure: (§1) Assay 1: Biochemical JAK Kinase Assays
(§2) A panel of four LanthaScreen JAK biochemical assays (JAK1, 2, 3 and Tyk2) were carried in a common kinase reaction buffer (50 mM HEPES, pH 7.5, 0.01% Brij-35, 10 mM MgCl2, and 1 mM EGTA). Recombinant GST-tagged JAK enzymes and a GFP-tagged STAT1 peptide substrate were obtained from Life Technologies.
(§3) Serially diluted compounds were pre-incubated with each of the four JAK enzymes and the substrate in white 384-well microplates (Corning) at ambient temperature for 1 h. ATP was subsequently added to initiate the kinase reactions in 10 μL total volume, with 1% DMSO. […] Kinase reactions were allowed to proceed for 1 hour at ambient temperature before a 10 μL preparation of EDTA (10 mM final concentration) and Tb-anti-pSTAT1 (pTyr701) antibody (Life Technologies, 2 nM final concentration) in TR-FRET dilution buffer (Life Technologies) was added. The plates were allowed to incubate at ambient temperature for 1 h before being read on the EnVision reader (Perkin Elmer). Emission ratio signals (520 nm/495 nm) were recorded and utilized to calculate the percent inhibition values based on DMSO and background controls.
(§4) For dose-response analysis, percent inhibition data were plotted vs. compound concentrations, and IC50 values were determined from a 4-parameter robust fit model with the Prism software (GraphPad Software). Results were expressed as pIC50 (negative logarithm of IC50) and subsequently converted to pKi (negative logarithm of dissociation constant, Ki) using the Cheng-Prusoff equation.

[2] = target: JAK2 (Homo sapiens (Human), UniProt O60674); experiment: Biochemical JAK kinase assay (LanthaScreen), JAK2
Procedure: as §1, §2, §3, §4

[3] = Lung S9 metabolism; assay type: in vitro ADME, human; conditions: for Compound Remaining at 60 min (%) / microsomal CLint at 1 µM: human lung S9, 1 μM compound, 1 mg/mL S9 protein, NADPH and PAPS; for microsomal CLint at 1 µM: lung S9 fraction, pH 7.4, read-out: Clearance; for Sulfate Appearance: qualitative, O-sulfate metabolite peak in human lung S9
Procedure: Assay 5: Lung S9 Metabolism […] Lung S9 fractions from human (lot 1410245) were purchased from XenoTech LLC (Lenexa, Kans.). NADPH (Sigma Aldrich, N1630) and 3-phosphoadenosine 5-phosphosulfate (PAPS) (Sigma Aldrich, A1651) were purchased from Sigma Aldrich (St. Louis, Mo.). Acetonitrile and water were obtained from VWR (Radnor, Pa.) and were of HPLC grade or better. Raloxifene and formic acid was purchased from Sigma Aldrich (St. Louis, Mo.). Lung S9 incubations were performed in a water bath at 37° C. in a 96-well polypropylene plate. […] All samples were centrifuged at 2250 g for 10 minutes at 5° C. Supernatant (50 μL) was taken from the centrifuged samples and diluted into 100 μL HPLC water containing internal standard. […] Mobile Phase A consisted of Water+0.2% formic acid and Mobile Phase B consisted of acetonitrile+0.2% formic acid. Peak integration was accomplished using Gubbs GMSU software (Gubbs Inc., Alpharetta, Ga.). For each sample, peak area ratios were calculated by dividing the analyte peak area by the internal standard peak area. […] Determination of sulfate metabolite formation was made qualitatively by observation of early-eluting peak in the parent ion channel which, based on historical internal data, corresponded to the O-sulfate metabolite of each parent compound.

[4] = test system: TSLP-evoked TARC release in human peripheral blood mononuclear cells; experiment: Inhibition of TSLP-evoked TARC release in human peripheral blood mononuclear cells; assay type: cell-based; conditions: PBMC from 3 to 5 donors, TSLP 10 ng/mL, 48 hours, TARC ELISA, read-out: pIC50 ± st. dev., inhibition of TSLP-evoked TARC release (converted)
From the text: Assay 4: Inhibition of TSLP-Evoked TARC Release in Human Peripheral Blood Mononuclear Cells
Thymic stromal lymphopoietin (TSLP) and thymus and activation-regulated chemokine (TARC) are overexpressed in asthmatic airways, and correlate with disease severity. In the lungs, TSLP may be released by bronchial epithelial cells in response to allergens and viral infections. TSLP signals through an IL-7Rα/TSLPR heterodimer found in a broad range of tissues and cell types, including epithelial cells, endothelial cells, neutrophils, macrophages, and mast cells. The binding of TSLP to its receptor induces a conformational change that activates JAK1 and JAK2 to phosphorylate various transcription factors, including STAT3 and STAT5. In immune cells, this triggers a cascade of intracellular events that result in cell proliferation, anti-apoptosis, dendritic cell migration, and production of Th2 cytokines and chemokines. In peripheral blood mononuclear cells (PBMC), TSLP has a proinflammatory effect by activating myeloid dendritic cells to attract and stimulate T cells, a process mediated by the chemoattractant TARC.
The potencies of the test compounds were measured for inhibition of TARC release.
PBMC aliquots (previously isolated from whole blood and frozen in aliquots at −80° C.) from 3 to 5 donors were thawed at 37° C. and added dropwise to 40 mL pre-warmed, sterile-filtered, complete RPMI media in 50 mL Falcon tubes. Cells were pelleted and resuspended in complete media at 2.24×10^6 cells/mL. Cells were seeded at […] (190,000 cells) per well in a tissue culture treated 96-well flat bottom microplate. Cells were allowed to rest for 1 hour at 37° C. with 5% CO2.
Compounds were received as 10 mM stock solutions in DMSO. 3.7-fold serial dilutions were performed to generate 9 concentrations of test compound in DMSO at 300× the final assay test concentration. […] After the 1 hour rest period, 95 µL of 2× compound was added to each well of PBMC, for a final assay concentration range of 33.33 μM to […]. 95 μL of 0.2% DMSO in complete media was added to the untreated control wells. Cells were pre-treated with compound for 1 hour at 37° C. with 5% CO2 prior to stimulation.
Recombinant human TSLP protein was reconstituted at 10 μg/mL in sterile DPBS with 0.1% BSA and stored in aliquots at −20° C. Immediately prior to use, an aliquot was thawed and prepared at 20× the final assay concentration in complete media. 10 μL of 20×TSLP was added to each well of PBMC, for a final assay concentration of 10 ng/mL. 10 μL of complete media was added to the unstimulated control wells. Cells were stimulated in the presence of compound for 48 hours at 37° C. with 5% CO2.
Following stimulation, the cell culture supernatants were harvested and TARC levels were detected by enzyme-linked immunosorbent assay (ELISA), using Human CCL17/TARC Quantikine ELISA Kit (R&D Systems # DDN00) according to the manufacturer's instructions.
For dose response analysis, the log [test compound (M)] was plotted versus the percent response values for each donor, and IC50 values were determined using a nonlinear regression analysis with GraphPad Prism Software using the 4-parameter sigmoidal dose-response algorithm with variable slope. Data are expressed as mean pIC50 (negative decadic logarithm IC50) values calculated from pIC50 values of individual donors and rounded to one decimal place.

[5] = test system: IL-2 stimulated STAT5 phosphorylation in Tall-1 human T cell line; experiment: Inhibition of IL-2 stimulated pSTAT5 in Tall-1 T cells; assay type: cell-based; conditions: TALL-1, 0.5 h, IL-2 300 ng/mL, 30 min, pSTAT5 AlphaLisa, read-out: Tall-1 pIC50 (converted)
Procedure: Assay 2: Inhibition of IL-2 Stimulated pSTAT5 in Tall-1 T Cells
The potency of test compounds for inhibition of interleukin-2 (IL-2) stimulated STAT5 phosphorylation was measured in the Tall-1 human T cell line (DSMZ) using AlphaLisa.
Phosphorylated STAT5 was measured via the AlphaLISA SureFire Ultra pSTAT5 (Tyr694/699) kit (PerkinElmer).
Compounds were serially diluted in DMSO and dispensed acoustically to empty wells. Assay media (phenol red-free DMEM (Life Technologies) supplemented with 10% FBS (ATCC)) was dispensed (4 μL/well) and plates shaken at 900 rpm for 10 mins. Cells were seeded at 45,000 cells/well in assay media (4 μL/well), and incubated at 37° C., 5% CO2 for 1 hour, followed by the addition of IL-2 (R&D Systems; final concentration 300 ng/mL) in pre-warmed assay media (4 μL) for 30 minutes. […] The lysate was shaken at 900 rpm for 10 minutes at room temperature (RT). Phosphorylated STAT5 was measured via the pSTAT5 AlphaLisa kit (PerkinElmer). Freshly prepared acceptor bead mixture was dispensed onto lysate (5 μL) under green filtered <100 lux light. Plates were shaken at 900 rpm for 2 mins, briefly spun down, and incubated for 2 hrs at RT in the dark. Donor beads were dispensed (5 μL) under green filtered <100 lux light. Plates were shaken at 900 rpm for 2 minutes, briefly spun down, and incubated overnight at RT in the dark. Luminescence was measured with excitation at 689 nm and emission at 570 nm using an EnVision plate reader (PerkinElmer) under green filtered <100 lux light.
To determine the inhibitory potency of test compounds in response to IL-2, the average emission intensity of beads bound to pSTAT5 was measured in a human T cell line. IC50 values were determined from analysis of the inhibition curves of signal intensity versus compound concentration. Data are expressed as pIC50 (negative decadic logarithm IC50) values (mean±standard deviation).

[6] = target: JAK1 (Homo sapiens (Human), UniProt P23458); experiment: Co-crystal structure with JAK1; conditions: resolution of 2.28 Å
From the text: A co-crystal structure was obtained of compound D-1 bound to human JAK1 at a resolution of 2.28 Å. […] Seven specific hydrogen bonding interactions were identified based upon a distance of 3.5 Å or less between donor and acceptor atoms. Of particular note, a hydrogen bonding interaction was identified between the carbonyl of the exocyclic amide of compound D-1 and the sidechain of Arg879 of JAK1. A similar interaction can be expected for the compounds of the invention.

Chain of Tyk2 (P29597 whole entry): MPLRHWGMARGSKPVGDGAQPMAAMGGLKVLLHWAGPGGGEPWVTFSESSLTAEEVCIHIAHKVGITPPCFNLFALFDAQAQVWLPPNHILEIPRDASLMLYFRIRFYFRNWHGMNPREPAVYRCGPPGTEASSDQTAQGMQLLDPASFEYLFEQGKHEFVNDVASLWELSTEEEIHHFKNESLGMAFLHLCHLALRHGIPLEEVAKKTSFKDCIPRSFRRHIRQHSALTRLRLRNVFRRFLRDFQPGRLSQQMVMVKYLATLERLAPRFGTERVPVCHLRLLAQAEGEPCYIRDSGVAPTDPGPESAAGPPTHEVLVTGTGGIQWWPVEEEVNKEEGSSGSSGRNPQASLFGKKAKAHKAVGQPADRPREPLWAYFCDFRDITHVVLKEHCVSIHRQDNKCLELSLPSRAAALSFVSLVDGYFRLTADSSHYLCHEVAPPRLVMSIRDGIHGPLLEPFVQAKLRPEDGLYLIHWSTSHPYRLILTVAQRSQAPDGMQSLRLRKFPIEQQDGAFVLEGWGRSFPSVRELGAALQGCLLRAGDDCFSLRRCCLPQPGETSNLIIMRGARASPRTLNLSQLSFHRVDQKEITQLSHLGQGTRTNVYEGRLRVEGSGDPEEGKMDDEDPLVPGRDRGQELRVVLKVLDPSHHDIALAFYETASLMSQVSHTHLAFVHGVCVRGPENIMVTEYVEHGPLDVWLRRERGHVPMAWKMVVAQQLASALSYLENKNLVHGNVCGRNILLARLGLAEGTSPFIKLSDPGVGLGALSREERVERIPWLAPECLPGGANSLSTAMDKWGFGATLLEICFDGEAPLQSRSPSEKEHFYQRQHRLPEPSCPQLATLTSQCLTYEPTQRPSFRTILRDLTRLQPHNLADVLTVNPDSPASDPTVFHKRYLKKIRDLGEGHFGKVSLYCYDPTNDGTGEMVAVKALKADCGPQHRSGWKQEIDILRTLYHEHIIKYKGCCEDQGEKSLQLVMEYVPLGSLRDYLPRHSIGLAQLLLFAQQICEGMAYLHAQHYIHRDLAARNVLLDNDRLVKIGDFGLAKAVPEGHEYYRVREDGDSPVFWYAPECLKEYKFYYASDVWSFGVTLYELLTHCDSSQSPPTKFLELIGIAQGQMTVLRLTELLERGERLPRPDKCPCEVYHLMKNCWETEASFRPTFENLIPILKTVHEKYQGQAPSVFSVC
Chain of JAK1 (P23458 whole entry): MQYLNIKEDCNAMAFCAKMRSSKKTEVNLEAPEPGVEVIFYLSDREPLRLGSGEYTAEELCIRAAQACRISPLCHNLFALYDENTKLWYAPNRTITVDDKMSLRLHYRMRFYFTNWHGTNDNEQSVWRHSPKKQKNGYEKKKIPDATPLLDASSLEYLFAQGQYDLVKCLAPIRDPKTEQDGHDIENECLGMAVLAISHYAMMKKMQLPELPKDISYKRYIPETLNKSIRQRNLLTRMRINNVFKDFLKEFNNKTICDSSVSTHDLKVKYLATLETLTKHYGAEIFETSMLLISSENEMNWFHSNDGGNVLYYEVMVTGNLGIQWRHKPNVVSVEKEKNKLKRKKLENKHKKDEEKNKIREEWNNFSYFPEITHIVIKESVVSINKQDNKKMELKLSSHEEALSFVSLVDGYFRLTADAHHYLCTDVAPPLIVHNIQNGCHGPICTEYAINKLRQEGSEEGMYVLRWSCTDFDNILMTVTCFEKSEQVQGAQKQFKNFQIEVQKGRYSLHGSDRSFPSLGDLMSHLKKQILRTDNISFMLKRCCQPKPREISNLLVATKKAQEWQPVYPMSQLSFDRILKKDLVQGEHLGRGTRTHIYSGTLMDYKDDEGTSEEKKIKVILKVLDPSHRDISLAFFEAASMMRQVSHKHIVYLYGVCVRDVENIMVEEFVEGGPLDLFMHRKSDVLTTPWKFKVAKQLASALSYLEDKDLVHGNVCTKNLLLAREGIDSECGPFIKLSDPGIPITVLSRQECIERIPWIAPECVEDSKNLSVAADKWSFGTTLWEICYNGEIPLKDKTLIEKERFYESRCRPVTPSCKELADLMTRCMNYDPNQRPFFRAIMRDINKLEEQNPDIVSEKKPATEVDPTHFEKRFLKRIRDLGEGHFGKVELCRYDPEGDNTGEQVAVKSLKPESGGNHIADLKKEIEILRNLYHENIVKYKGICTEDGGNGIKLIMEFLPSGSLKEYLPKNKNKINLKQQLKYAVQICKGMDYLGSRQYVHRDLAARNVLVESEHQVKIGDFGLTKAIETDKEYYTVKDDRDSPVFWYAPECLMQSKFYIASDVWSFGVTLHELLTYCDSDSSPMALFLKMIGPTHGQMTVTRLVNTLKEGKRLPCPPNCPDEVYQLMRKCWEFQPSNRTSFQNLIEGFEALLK
Chain of JAK2 (O60674 whole entry): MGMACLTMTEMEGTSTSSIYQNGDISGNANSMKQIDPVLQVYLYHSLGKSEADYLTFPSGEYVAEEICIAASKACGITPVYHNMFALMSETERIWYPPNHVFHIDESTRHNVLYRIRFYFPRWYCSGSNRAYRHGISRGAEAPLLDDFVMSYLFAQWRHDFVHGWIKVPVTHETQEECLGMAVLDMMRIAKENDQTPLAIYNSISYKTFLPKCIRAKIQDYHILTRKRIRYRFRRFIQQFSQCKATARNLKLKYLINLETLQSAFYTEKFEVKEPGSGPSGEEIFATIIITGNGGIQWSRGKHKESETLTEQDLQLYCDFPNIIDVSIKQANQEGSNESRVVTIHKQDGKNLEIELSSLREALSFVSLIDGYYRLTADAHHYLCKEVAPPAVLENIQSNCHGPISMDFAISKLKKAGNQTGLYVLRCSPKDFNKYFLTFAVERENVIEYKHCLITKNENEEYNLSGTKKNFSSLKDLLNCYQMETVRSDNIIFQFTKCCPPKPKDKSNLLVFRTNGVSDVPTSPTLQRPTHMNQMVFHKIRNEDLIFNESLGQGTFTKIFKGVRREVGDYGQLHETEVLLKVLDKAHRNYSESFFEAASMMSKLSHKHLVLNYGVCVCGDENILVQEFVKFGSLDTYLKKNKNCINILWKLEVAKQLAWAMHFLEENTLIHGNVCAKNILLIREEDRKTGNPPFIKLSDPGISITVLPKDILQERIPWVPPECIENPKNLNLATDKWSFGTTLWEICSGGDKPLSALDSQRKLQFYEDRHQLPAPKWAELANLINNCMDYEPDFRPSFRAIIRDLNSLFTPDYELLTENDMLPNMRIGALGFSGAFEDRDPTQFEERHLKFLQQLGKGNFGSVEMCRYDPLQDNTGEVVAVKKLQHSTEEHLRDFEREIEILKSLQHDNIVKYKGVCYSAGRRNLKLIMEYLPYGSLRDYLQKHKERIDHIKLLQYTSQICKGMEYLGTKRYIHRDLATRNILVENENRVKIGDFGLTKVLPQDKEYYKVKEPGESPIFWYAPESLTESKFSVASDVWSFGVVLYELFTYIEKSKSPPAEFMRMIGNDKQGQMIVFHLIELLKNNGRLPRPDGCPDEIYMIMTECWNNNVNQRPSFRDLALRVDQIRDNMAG

Q: For `CCc1cc(O)ccc1-c1ccc2c(-c3nc4c([nH]3)CN(C)[C@H](C(=O)N3CCN(C)C[C@@H]3C)C4)n[nH]c2c1` [Compound 3, ((S)-2,4-dimethylpiperazin-1-yl)((S)-2-(6-(2-ethyl-4-hydroxyphenyl)-1H-indazol-3-yl)-5-methyl-4,5,6,7-tetrahydro-3H-imidazo[4,5-c]pyridin-6-yl)methanone], which “Tyk2 pKi” value [1] is on record?
A: 9.3

Q: And the “JAK2 pKi” value [2]?
A: 10.4

Q: And the “Compound Remaining at 60 min (%)” value [3]?
A: 86%

Q: And the microsomal CLint at 1 µM [3]?
A: 2.6 µL/min/mg

Q: What about the “Sulfate Appearance” value [3] of the same molecule?
A: Yes

Q: With `CCc1cc(O)c(F)cc1-c1ccc2c(-c3nc4c([nH]3)CN(C(C)C)[C@H](C(=O)N3CC[C@H](N(C)C)C3)C4)n[nH]c2c1` [Compound C-6, reference compound] as the molecule, how does the IC50 [4] read?
A: 158 nM

Q: What about the “Compound Remaining at 60 min (%)” value [3] of the same molecule?
A: 5%

Q: What about the microsomal CLint at 1 µM [3] of the same molecule?
A: 51.4 µL/min/mg

Q: And the “Sulfate Appearance” value [3]?
A: Yes

Q: What about the IC50 [5] of the same molecule?
A: 2.51 nM

Q: With `CCc1cc(O)c(F)cc1-c1ccc2c(-c3nc4c([nH]3)CN(C(C)C)[C@H](C(=O)N3CC(N(C)C)C3)C4)n[nH]c2c1` [Compound D-1, (S)-(3-(dimethylamino)azetidin-1-yl)(2-(6-(2-ethyl-5-fluoro-4-hydroxyphenyl)-1H-indazol-3-yl)-5-isopropyl-4,5,6,7-tetrahydro-3H-imidazo[4,5-c]pyridin-6-yl)methanone] as the molecule, how does the “binding site in co-crystal structure” value [6] read?
A: bind in the ATP binding site

Reference: patent US10836763B2, “5 to 7 membered heterocyclic amides as JAK inhibitors” (priority 2018, dated 2020)
